Experimental data reported in BindingDB's records for doi:10.1016/j.bmcl.2009.09.017 (Pfizer, 2009).

Experiment: Antagonist activity at P2Y12 receptor in human platelet rich plasma assessed as inhibition of ADP-induced platelet aggregation by light transmission aggregometry

| SMILES | IC50 [nM] |
| --- | --- |
| CCCCCOC(=O)N1CCN(C(=O)[C@H](CCC(=O)O)NC(=O)c2cc(N3CCC(CC(=O)N4CCC4)CC3)nc(-c3ccccc3)n2)CC1 [(S)-4-(6-(4-(2-(azetidin-1-yl)-2-oxoethyl)piperidin-1-yl)-2-phenylpyrimidine-4-carboxamido)-5-oxo-5-(4-(pentyloxycarbonyl)piperazin-1-yl)pentanoic acid] | 1000 |
| CCCCCOC(=O)N1CCN(C(=O)[C@H](CCC(=O)O)NC(=O)c2cc(N3CCC(CC(=O)N(CC)CC)CC3)nc(-c3ccccc3)n2)CC1 [(S)-4-(6-(4-(2-(diethylamino)-2-oxoethyl)piperidin-1-yl)-2-phenylpyrimidine-4-carboxamido)-5-oxo-5-(4-(pentyloxycarbonyl)piperazin-1-yl)pentanoic acid] | 2600 |
| CCCCCOC(=O)N1CCN(C(=O)[C@H](CCC(=O)O)NC(=O)c2cc(N3CCN(CC(=O)N(C)C)CC3)nc(-c3ccccc3)n2)CC1 [(S)-4-(6-(4-(2-(dimethylamino)-2-oxoethyl)piperazin-1-yl)-2-phenylpyrimidine-4-carboxamido)-5-oxo-5-(4-(pentyloxycarbonyl)piperazin-1-yl)pentanoic acid] | 530 |
| CCCCCOC(=O)N1CCN(C(=O)[C@H](CCC(=O)O)NC(=O)c2cc(N3CCC(CCN(C)C)CC3)nc(-c3ccccc3)n2)CC1 [(S)-4-(6-(4-(2-(dimethylamino)ethyl)piperidin-1-yl)-2-phenylpyrimidine-4-carboxamido)-5-oxo-5-(4-(pentyloxycarbonyl)piperazin-1-yl)pentanoic acid] | 400 |
| CCCCCOC(=O)N1CCN(C(=O)[C@H](CCC(=O)O)NC(=O)c2cc(N3CCC(CC(=O)NCC)CC3)nc(-c3ccccc3)n2)CC1 [(S)-4-(6-(4-(2-(ethylamino)-2-oxoethyl)piperidin-1-yl)-2-phenylpyrimidine-4-carboxamido)-5-oxo-5-(4-(pentyloxycarbonyl)piperazin-1-yl)pentanoic acid] | 1600 |
| CCCCCOC(=O)N1CCN(C(=O)[C@H](CCC(=O)O)NC(=O)c2cc(N3CCC(CC(=O)NC)CC3)nc(-c3ccccc3)n2)CC1 [(S)-4-(6-(4-(2-(methylamino)-2-oxoethyl)piperidin-1-yl)-2-phenylpyrimidine-4-carboxamido)-5-oxo-5-(4-(pentyloxycarbonyl)piperazin-1-yl)pentanoic acid] | 1100 |
| CCCCCOC(=O)N1CCN(C(=O)[C@H](CCC(=O)O)NC(=O)c2cc(N3CCC(CCN)CC3)nc(-c3ccccc3)n2)CC1 [(S)-4-(6-(4-(2-aminoethyl)piperidin-1-yl)-2-phenylpyrimidine-4-carboxamido)-5-oxo-5-(4-(pentyloxycarbonyl)piperazin-1-yl)pentanoic acid] | 620 |
| CCCCCOC(=O)N1CCN(C(=O)[C@H](CCC(=O)O)NC(=O)c2cc(N3CCC(OCCO)CC3)nc(-c3ccccc3)n2)CC1 [(S)-4-(6-(4-(2-hydroxyethoxy)piperidin-1-yl)-2-phenylpyrimidine-4-carboxamido)-5-oxo-5-(4-(pentyloxycarbonyl)piperazin-1-yl)pentanoic acid] | 1300 |
| CCCCCOC(=O)N1CCN(C(=O)[C@H](CCC(=O)O)NC(=O)c2cc(N3CCC(OCCOC)CC3)nc(-c3ccccc3)n2)CC1 [(S)-4-(6-(4-(2-methoxyethoxy)piperidin-1-yl)-2-phenylpyrimidine-4-carboxamido)-5-oxo-5-(4-(pentyloxycarbonyl)piperazin-1-yl)pentanoic acid] | 1400 |
| CCCCCOC(=O)N1CCN(C(=O)[C@H](CCC(=O)O)NC(=O)c2cc(N3CCN(CCOC)CC3)nc(-c3ccccc3)n2)CC1 [(S)-4-(6-(4-(2-methoxyethyl)piperazin-1-yl)-2-phenylpyrimidine-4-carboxamido)-5-oxo-5-(4-(pentyloxycarbonyl)piperazin-1-yl)pentanoic acid] | 2200 |
| CCCCCOC(=O)N1CCN(C(=O)[C@H](CCC(=O)O)NC(=O)c2cc(N3CCC(CCOC)CC3)nc(-c3ccccc3)n2)CC1 [(S)-4-(6-(4-(2-methoxyethyl)piperidin-1-yl)-2-phenylpyrimidine-4-carboxamido)-5-oxo-5-(4-(pentyloxycarbonyl)piperazin-1-yl)pentanoic acid] | 6300 |
| CCCCCOC(=O)N1CCN(C(=O)[C@H](CCC(=O)O)NC(=O)c2cc(N3CCC(COCCOC)CC3)nc(-c3ccccc3)n2)CC1 [(S)-4-(6-(4-((2-methoxyethoxy)methyl)piperidin-1-yl)-2-phenylpyrimidine-4-carboxamido)-5-oxo-5-(4-(pentyloxycarbonyl)piperazin-1-yl)pentanoic acid] | 2000 |
| CCCCCOC(=O)N1CCN(C(=O)[C@H](CCC(=O)O)NC(=O)c2cc(N3CCC(CNCC)CC3)nc(-c3ccccc3)n2)CC1 [(S)-4-(6-(4-((ethylamino)methyl)piperidin-1-yl)-2-phenylpyrimidine-4-carboxamido)-5-oxo-5-(4-(pentyloxycarbonyl)piperazin-1-yl)pentanoic acid] | 770 |
| CCCCCOC(=O)N1CCN(C(=O)[C@H](CCC(=O)O)NC(=O)c2cc(N3CCC(CNC)CC3)nc(-c3ccccc3)n2)CC1 [(S)-4-(6-(4-((methylamino)methyl)piperidin-1-yl)-2-phenylpyrimidine-4-carboxamido)-5-oxo-5-(4-(pentyloxycarbonyl)piperazin-1-yl)pentanoic acid] | 740 |
| CCCCCOC(=O)N1CCN(C(=O)[C@H](CCC(=O)O)NC(=O)c2cc(N3CCC(CN)CC3)nc(-c3ccccc3)n2)CC1 [(S)-4-(6-(4-(aminomethyl)piperidin-1-yl)-2-phenylpyrimidine-4-carboxamido)-5-oxo-5-(4-(pentyloxycarbonyl)piperazin-1-yl)pentanoic acid] | 490 |
| CCCCCOC(=O)N1CCN(C(=O)[C@H](CCC(=O)O)NC(=O)c2cc(N3CCC(C(=O)N4CCC4)CC3)nc(-c3ccccc3)n2)CC1 [(S)-4-(6-(4-(azetidine-1-carbonyl)piperidin-1-yl)-2-phenylpyrimidine-4-carboxamido)-5-oxo-5-(4-(pentyloxycarbonyl)piperazin-1-yl)pentanoic acid] | 230 |
| CCCCCOC(=O)N1CCN(C(=O)[C@H](CCC(=O)O)NC(=O)c2cc(N3CCC(C(=O)N(CC)CC)CC3)nc(-c3ccccc3)n2)CC1 [(S)-4-(6-(4-(diethylcarbamoyl)piperidin-1-yl)-2-phenylpyrimidine-4-carboxamido)-5-oxo-5-(4-(pentyloxycarbonyl)piperazin-1-yl)pentanoic acid] | 400 |
| CCCCCOC(=O)N1CCN(C(=O)[C@H](CCC(=O)O)NC(=O)c2cc(N3CCN(C(=O)N(C)C)CC3)nc(-c3ccccc3)n2)CC1 [(S)-4-(6-(4-(dimethylcarbamoyl)piperazin-1-yl)-2-phenylpyrimidine-4-carboxamido)-5-oxo-5-(4-(pentyloxycarbonyl)piperazin-1-yl)pentanoic acid] | 1600 |
| CCCCCOC(=O)N1CCN(C(=O)[C@H](CCC(=O)O)NC(=O)c2cc(N3CCC(C(=O)N(C)C)CC3)nc(-c3ccccc3)n2)CC1 [(S)-4-(6-(4-(dimethylcarbamoyl)piperidin-1-yl)-2-phenylpyrimidine-4-carboxamido)-5-oxo-5-(4-(pentyloxycarbonyl)piperazin-1-yl)pentanoic acid] | 370 |
| CCCCCOC(=O)N1CCN(C(=O)[C@H](CCC(=O)O)NC(=O)c2cc(N3CCC(C(=O)NCC)CC3)nc(-c3ccccc3)n2)CC1 [(S)-4-(6-(4-(ethylcarbamoyl)piperidin-1-yl)-2-phenylpyrimidine-4-carboxamido)-5-oxo-5-(4-(pentyloxycarbonyl)piperazin-1-yl)pentanoic acid] | 930 |
